Laboratory results reported in US11986493B2 (University of Pittsburgh—Of the Commonwealth System of …, priority 2013, dated 2024).

Tested on: subjects with pulmonary hypertension (WHO group I PAH, WHO group III PH)
Assay: Right heart catheterization: right heart/pulmonary artery hemodynamics, thermodilution cardiac output, PVR and SVR after inhaled NO and nebulized nitrite
Format: in vivo, human
Description: A total of 6 subjects with a confirmed diagnosis of pulmonary hypertension and meeting all inclusion/exclusion criteria were enrolled in the study which entailed a single right heart catheterization. The study population consisted of subjects with WHO group I PAH (n=3) and subjects with WHO group III PH (n=3) which received the dose escalation paradigm:
During the study right heart/pulmonary artery hemodynamics were measured as well as noninvasive systemic blood pressure monitoring and simultaneous RV echocardiography. Subjects were tested for the changes in pulmonary vascular resistance (PVR) measured by right heart catheterization and using thermodilution cardiac output measurement at time zero, at times 15, 30 and 45 minutes after completion of each nebulization dose.
Following right heart catheterization, the patient was stabilized for 20 minutes. Baseline blood collections and hemodynamic measurements were performed, followed by treatment with 40 ppm inhaled NO gas for […] with repeat hemodynamic measurements performed.
After stopping inhaled NO gas, a single dose of sildenafil was given if patients were on background sildenafil therapy at previously prescribed doses. 45-minutes after sildenafil dose baseline hemodynamics were performed.
Subjects were monitored carefully during and after the study treatment.
The study was conducted at the 3rd FL Catheterization Laboratory at Presbyterian Hospital of the University of Pittsburgh Medical Center (UPMC). Baseline vasoreactivity was recorded after Inhaled NO at 40 ppm for […]. […] Subjects were instructed to breathe as calmly, and deeply as possible until no more mist was formed in the nebulizer chamber. Subjects were also instructed to hold their breath for approximately 10 seconds after inhalation to allow the study drug to reach deep into the lungs.

[1] = Patient 4, nitrite 45 mg inhaled, 15 min
[2] = Patient 4, nitrite 45 mg inhaled, 30 min
[3] = Patient 4, nitrite 45 mg inhaled, 45 min
[4] = Patient 4, nitrite 45 mg inhaled, 60 min
[5] = Patient 4, nitrite 90 mg inhaled, 15 min
[6] = Patient 4, nitrite 90 mg inhaled, 30 min
[7] = Patient 4, nitrite 90 mg inhaled, 45 min
[8] = Patient 4, nitrite 90 mg inhaled, 60 min
[9] = Patient 5, nitrite 45 mg inhaled, 15 min
[10] = Patient 5, nitrite 45 mg inhaled, 30 min
[11] = Patient 5, nitrite 45 mg inhaled, 45 min
[12] = Patient 5, nitrite 45 mg inhaled, 60 min

O=NO [nitrite, sodium nitrite]
mPAP (Patient 3, nitrite 90 mg inhaled, 60 min): 37.34 | CI [1]: 3.07 | CO [1]: 5.37 | PAD [1]: 26 | PAS [1]: 69 | PCWP [1]: 7 | PVR [1]: 6.21 | PVR/SVR [1]: 0.36 | RA [1]: 3 | RVD [1]: 3 | RVS [1]: 74 | SVR [1]: 17.01 | TPR [1]: 7.51 | mPAP [1]: 40.34 | CI [2]: 2.69 | CO [2]: 4.7 | PAD [2]: 24 | PAS [2]: 70 | PCWP [2]: 8 | PVR [2]: 6.67 | PVR/SVR [2]: 0.34 | RA [2]: 4 | RVD [2]: 3 | RVS [2]: 67 | SVR [2]: 19.58 | TPR [2]: 8.37 | mPAP [2]: 39.34 | CI [3]: 2.71 | CO [3]: 4.75 | PAD [3]: 23 | PAS [3]: 68 | PCWP [3]: 9 | PVR [3]: 6.11 | PVR/SVR [3]: 0.32 | RA [3]: 2 | RVD [3]: 2 | RVS [3]: 68 | SVR [3]: 18.95 | TPR [3]: 8.00 | mPAP [3]: 38.01 | CI [4]: 3.03 | CO [4]: 5.31 | PAD [4]: 21 | PAS [4]: 69 | PCWP [4]: 8 | PVR [4]: 5.46 | PVR/SVR [4]: 0.33 | RA [4]: 3 | RVD [4]: 2 | RVS [4]: 68 | SVR [4]: 16.57 | TPR [4]: 6.97 | mPAP [4]: 37.01 | CI [5]: 3.08 | CO [5]: 5.39 | PAD [5]: 23 | PAS [5]: 71 | PCWP [5]: 8 | PVR [5]: 5.75 | PVR/SVR [5]: 0.39 | RA [5]: 3 | RVD [5]: 3 | RVS [5]: 62 | SVR [5]: 14.78 | TPR [5]: 7.24 | mPAP [5]: 39.01 | CI [6]: 3.03 | CO [6]: 5.3 | PAD [6]: 22 | PAS [6]: 70 | PCWP [6]: 7 | PVR [6]: 5.85 | PVR/SVR [6]: 0.37 | RA [6]: 4 | RVD [6]: 3 | RVS [6]: 70 | SVR [6]: 15.73 | TPR [6]: 7.17 | mPAP [6]: 38.01 | CI [7]: 3.08 | CO [7]: 5.39 | PAD [7]: 23 | PAS [7]: 69 | PCWP [7]: 7 | PVR [7]: 5.81 | PVR/SVR [7]: 0.39 | RA [7]: 2 | RVD [7]: 2 | RVS [7]: 74 | SVR [7]: 14.91 | TPR [7]: 7.11 | mPAP [7]: 38.34 | CI [8]: 3.03 | CO [8]: 5.3 | PAD [8]: 21 | PAS [8]: 67 | PCWP [8]: 8 | PVR [8]: 5.35 | PVR/SVR [8]: 0.33 | RA [8]: 2 | RVD [8]: 3 | RVS [8]: 70 | SVR [8]: 16.04 | TPR [8]: 6.86 | mPAP [8]: 36.34 | CI [9]: 2.80 | CO [9]: 4.95 | PAD [9]: 16 | PAS [9]: 66 | PCWP [9]: 3 | PVR [9]: 5.99 | PVR/SVR [9]: 0.48 | RA [9]: 1 | RVD [9]: 1 | RVS [9]: 68 | SVR [9]: 12.53 | TPR [9]: 6.60 | mPAP [9]: 32.67 | CI [10]: 2.50 | CO [10]: 4.43 | PAD [10]: 15 | PAS [10]: 66 | PCWP [10]: 3 | PVR [10]: 6.55 | PVR/SVR [10]: 0.44 | RA [10]: 1 | SVR [10]: 14.75 | TPR [10]: 7.22 | mPAP [10]: 32.00 | CI [11]: 2.75 | CO [11]: 4.86 | PA sat [11]: 60 | PAD [11]: 14 | PAS [11]: 67 | PCWP [11]: 4 | PVR [11]: 5.69 | PVR/SVR [11]: 0.42 | RA [11]: 1 | SVR [11]: 13.65 | TPR [11]: 6.52 | mPAP [11]: 31.67 | CI [12]: 2.52 | CO [12]: 4.46 | PAD [12]: 17 | PAS [12]: 74
